Data published in US20100022514A1, “Heterocycle Compounds and Methods of Use Thereof” (NORVARTIS AG, priority 2006, published 2010).
Read-outs that look alike come from different tables or passages of the source.

How the values were obtained:
[1] = target: T1, HDAC-1 (Homo sapiens, UniProt Q13547); assay: Deacetylase fluorescence assay (HDAC-1); type: biochemical
T1 construct: made in house
In short: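 Flag-tagged HDAC-1 immunopurified from overexpressing 293-derived cells was assayed in 25 mM Tris-HCl pH 8.0, 137 mM NaCl, 2.7 mM KCl, 1 mM MgCl2 with Fluor de Lys substrate (50 uM) and inhibitor. Deacetylation was read by fluorescence after trypsin developer containing TSA.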

[2] = test system: p21 promoter (p21-luc) in H1299 cells; assay: p21 promoter luciferase assay using stably transfected p21-luc in H1299 cells; type: cell-based; settings: Homo sapiens, NCI-H1299
In short: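 H1299 cells stably carrying a p21 promoter–luciferase reporter, grown in RPMI 1640/10% FBS under Geneticin selection, seeded about 5000 cells/well and incubated overnight at 37 C. Compound exposure lasted one day. Cells were then lysed and luciferase luminescence measured.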

T1 sequence (Q13547 whole entry): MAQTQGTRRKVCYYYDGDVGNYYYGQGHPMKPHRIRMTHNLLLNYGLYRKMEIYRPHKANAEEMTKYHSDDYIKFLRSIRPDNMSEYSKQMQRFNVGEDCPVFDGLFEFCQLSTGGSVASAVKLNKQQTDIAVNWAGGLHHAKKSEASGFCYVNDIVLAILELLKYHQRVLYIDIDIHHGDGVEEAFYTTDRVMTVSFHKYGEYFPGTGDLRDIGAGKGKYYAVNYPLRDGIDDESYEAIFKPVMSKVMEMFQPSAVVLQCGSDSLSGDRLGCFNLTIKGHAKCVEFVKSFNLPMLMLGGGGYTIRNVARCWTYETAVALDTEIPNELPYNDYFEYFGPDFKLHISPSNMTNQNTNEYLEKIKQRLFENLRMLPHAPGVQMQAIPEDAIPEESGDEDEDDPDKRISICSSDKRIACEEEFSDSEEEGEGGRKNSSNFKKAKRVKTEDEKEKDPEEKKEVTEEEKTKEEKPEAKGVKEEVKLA

SMILES | IC50 ([1]; read-out: HDAC-1 IC50) [µM] | IC50 [1] [µM] | AC50 [2] [µM]
Cc1[nH]c2ccccc2c1CCN1CCc2cc(/C=C/C(=O)NO)ccc2C1 [Example 70, (E)-N-Hydroxy-3-{2-[2-(2-methyl-1H-indol-3-yl)-ethyl]-1,2,3,4-tetrahydro-isoquinolin-6-yl}-acrylamide] | – | < 0.1 | 0.1 to 1
Cc1nn2ccccc2c1CCN1CCc2ccc(/C=C/C(=O)NO)cc2CC1 [Example 71, (E)-N-Hydroxy-3-{3-[2-(2-methyl-pyrazolo[1,5-a]pyridin-3-yl)-ethyl]-2,3,4,5-tetrahydro-1H-benzo[d]azepin-7-yl}-acrylamide] | 0.1 to 1 | – | > 1
CCc1nn2ccccc2c1CCN1CCc2cc(/C=C/C(=O)NO)ccc2C1 [Example 72, (E)-3-{2-[2-(2-Ethyl-pyrazolo[1,5-a]pyridin-3-yl)-ethyl]-1,2,3,4-tetrahydro-isoquinolin-6-yl}-N-hydroxy-acrylamide] | < 0.1 | – | 0.1 to 1
CCc1nn2ccccc2c1CCN1CCc2cc(CCC(=O)NO)ccc2C1 [Example 73, 3-{2-[2-(2-Ethyl-pyrazolo[1,5-a]pyridin-3-yl)-ethyl]-1,2,3,4-tetrahydro-isoquinolin-6-yl}-N-hydroxy-propionamide] | 0.1 to 1 | – | > 1
CC(C)(C)c1[nH]c2ccccc2c1CCN1CCc2cc(/C=C/C(=O)NO)ccc2C1 [Example 74, (E)-3-{2-[2-(2-tert-Butyl-1H-indol-3-yl)-ethyl]-1,2,3,4-tetrahydro-isoquinolin-6-yl}-N-hydroxy-acrylamide] | < 0.1 | – | 0.1 to 1
O=C(/C=C/c1ccc2c(c1)CCN(CCc1ccccc1)C2)NO [Example 75, (E)-N-Hydroxy-3-(2-phenethyl-1,2,3,4-tetrahydro-isoquinolin-6-yl)-acrylamide] | < 0.1 | – | > 1
O=C(/C=C/c1ccc2c(c1)CCN(CCC1CCCCC1)C2)NO [Example 76, (E)-3-[2-(2-Cyclohexyl-ethyl)-1,2,3,4-tetrahydro-isoquinolin-6-yl]-N-hydroxy-acrylamide] | < 0.1 | – | > 1
O=C(/C=C/c1ccc2c(c1)CCN(Cc1ccccc1)C2)NO [Example 77, (E)-3-(2-Benzyl-1,2,3,4-tetrahydro-isoquinolin-6-yl)-N-hydroxy-acrylamide] | 0.1 to 1 | – | > 1
Cc1noc(-c2ccccc2)c1CCN1CCc2cc(/C=C/C(=O)NO)ccc2C1 [Example 78, (E)-N-Hydroxy-3-{2-[2-(3-methyl-5-phenyl-isoxazol-4-yl)-ethyl]-1,2,3,4-tetrahydro-isoquinolin-6-yl}-acrylamide] | < 0.1 | – | > 1
Cc1[nH]c2ccccc2c1CC(=O)N1CCc2cc(/C=C/C(=O)NO)ccc2C1 [Example 79, (E)-N-Hydroxy-3-{2-[2-(2-methyl-1H-indol-3-yl)-acetyl]-1,2,3,4-tetrahydro-isoquinolin-6-yl}-acrylamide] | < 0.1 | – | > 1
Cc1[nH]c2ccccc2c1CCN1CCc2ccc(/C=C/C(=O)NO)cc2CC1 [Example 80, (E)-N-Hydroxy-3-{3-[2-(2-methyl-1H-indol-3-yl)-ethyl]-2,3,4,5-tetrahydro-1H-benzo[d]azepin-7-yl}-acrylamide] | < 0.1 | – | > 1

Continued, in another order:

IC50 ([1]; read-out: HDAC-1 IC50) [µM] | SMILES | IC50 [1] [µM] | AC50 [2] [µM]
0.1 to 1 | O=C(/C=C/c1ccc2c(c1)CCN(S(=O)(=O)c1ccccc1)C2)NO [Example 81, (E)-3-(2-Benzenesulfonyl-1,2,3,4-tetrahydro-isoquinolin-6-yl)-N-hydroxy-acrylamide] | – | > 1
0.1 to 1 | COc1ccc(S(=O)(=O)N2CCc3cc(/C=C/C(=O)NO)ccc3C2)cc1 [Example 82, (E)-N-Hydroxy-3-[2-(4-methoxy-benzenesulfonyl)-1,2,3,4-tetrahydro-isoquinolin-6-yl]-acrylamide] | – | > 1
0.1 to 1 | COc1cccc(S(=O)(=O)N2CCc3cc(/C=C/C(=O)NO)ccc3C2)c1 [Example 83, (E)-N-Hydroxy-3-[2-(3-methoxy-benzenesulfonyl)-1,2,3,4-tetrahydro-isoquinolin-6-yl]-acrylamide] | – | > 1
0.1 to 1 | COc1cccc(S(=O)(=O)N2CCc3cc(CCC(=O)NO)ccc3C2)c1 [Example 84, N-Hydroxy-3-[2-(3-methoxy-benzenesulfonyl)-1,2,3,4-tetrahydro-isoquinolin-6-yl]-propionamide] | – | > 1
< 0.1 | Cc1c(CCN2CCc3cc(/C=C/C(=O)NO)ccc3C2)cnn1-c1ccccc1 [Example 85, (E)-N-Hydroxy-3-{2-[2-(5-methyl-1-phenyl-1H-pyrazol-4-yl)-ethyl]-1,2,3,4-tetrahydro-isoquinolin-6-yl}-acrylamide] | – | > 1
0.1 to 1 | CN(C)c1ccc(C(=O)N2CCc3cc(/C=C/C(=O)NO)ccc3C2)cc1 [Example 86, (E)-3-[2-(4-Dimethylamino-benzoyl)-1,2,3,4-tetrahydro-isoquinolin-6-yl]-N-hydroxy-acrylamide] | – | > 1
0.1 to 1 | CN(C)c1ccc(C(=O)N2CCc3cc(CCC(=O)NO)ccc3C2)cc1 [Example 87, 3-[2-(4-Dimethylamino-benzoyl)-1,2,3,4-tetrahydro-isoquinolin-6-yl]-N-hydroxy-propionamide] | – | > 1
0.1 to 1 | COc1cccc(C(=O)N2CCc3cc(/C=C/C(=O)NO)ccc3C2)c1 [Example 88, (E)-N-Hydroxy-3-[2-(3-methoxy-benzoyl)-1,2,3,4-tetrahydro-isoquinolin-6-yl]-acrylamide] | – | > 1
0.1 to 1 | COc1ccc(C(=O)N2CCc3cc(/C=C/C(=O)NO)ccc3C2)cc1 [Example 89, (E)-N-Hydroxy-3-[2-(4-methoxy-benzoyl)-1,2,3,4-tetrahydro-isoquinolin-6-yl]-acrylamide] | – | > 1
0.1 to 1 | CN(C)c1ccc(C(=O)N2CCc3ccc(CCC(=O)NO)cc3C2)cc1 [Example 90, 3-[2-(4-Dimethylamino-benzoyl)-1,2,3,4-tetrahydro-isoquinolin-7-yl]-N-hydroxy-propionamide] | – | > 1
